In patent US11519017B2, “Kit for diagnosing infection with Methicillin-resistant Staphylococcus aureus (MRSA) by detecting magnesium ions” (Bioacts Corporation, priority 2017, dated 2022):
Entries after “also recorded” stand apart in the source; their conditions may differ.

What was measured:
Format in all cases: physicochemical
[1] = Evaluation of molar absorption coefficient (UV-vis); settings: for Molar absorption coefficient: deionized water, UV-vis spectrometer; for absorption coefficient relative to HNB: times higher than that of HNB
Experimental: HNB and 9 types of candidate substances were dissolved in deionized water to prepare 100 μg/ml of a stock and then diluted with deionized water to prepare samples of 50, 25 and 12.5 μg/ml. Next, an absorption spectrum was obtained using an analyzer UV-vis spectrometer (Agilent 8453), and then absorption coefficient values at a concentration of […] were measured and shown in Table 1 below.

[2] = Evaluation of magnesium ion detection characteristics and pH stability (color development, 96 well plate); settings: sodium phosphate buffer pH 4, 7, 9, 11; specimen 120 μM
Experimental: 200 mM of a magnesium chloride solution was prepared by dissolving 0.9521 g of magnesium chloride in 50 ml of deionized water.
59.99 mg of sodium phosphate monobasic and 70.98 mg of sodium phosphate dibasic were dissolved in 50 ml of distilled water to prepare 10 mM of a sodium phosphate buffer solution, and then 28.85 ml of a sodium phosphate monobasic solution and 21.15 ml of a sodium phosphate dibasic solution were mixed to prepare a sodium phosphate buffer solution at pH 7. In a similar manner, the two solutions were mixed to prepare sodium phosphate buffer solutions having acidity of pH 4, pH 7, pH 9, and pH 11, respectively.
For determination of color development, the HNB and the candidate substance were prepared at concentrations of 240 μM and used for the test.
Hydroxynaphthalene blue (HNB) and 9 types of water-soluble candidate substances selected by the solubility test were diluted with distilled water to prepare specimens at concentrations of 240 μM, respectively.
It was confirmed whether the candidate substances according to the present invention reacted with magnesium ions to be color-developed (discolored). In addition, pH stability was confirmed according to whether the candidate substances were specifically color-developed by reacting only with magnesium ions regardless of a pH change.
The color development of the control (HNB) and […] of candidate substances was confirmed under conditions of blank, a MgCl2 solution, pH 4, pH 7, pH 9, and pH 11 using a 96 well plate (12×6 holes). Specifically, 100 μl of deionized water (blank) was added in a first row of the plate, 100 μl of the MgCl2 solution was added in a second row thereof, and 100 μl of each of solutions at pH 4, pH 7, pH 9, and pH 11 was added in third to sixth rows thereof using 10 mM of the sodium phosphate buffer solution prepared in step a) above. In columns of the plate, 100 μl of specimens prepared at a concentration of 240 μM were added to 6 rows, respectively, and a total of 36 specimens were screened. […]

[3] = Evaluation of magnesium ion sensitivity at concentration of less than 10 mM
Experimental: Magnesium chloride was dissolved in deionized water and diluted to 8, 10, 12, 14 and 16 mM, respectively, to prepare specimens. Next, as the dye compounds, the HNB and the compound of Chemical Formula 2 were prepared at a concentration of 240 μM, but the compounds of Chemical Formulas 3 and 4 were prepared to be diluted at a concentration of 120 μM by 50% because the molar absorption coefficient of the compounds was two times higher than that of the control (HNB).
In each row of a 96-well plate, […] of the dye compound was filled, and in each column, […] of a diluted magnesium chloride solution was filled, and then the color changes were observed and absorbance was measured. The final concentrations of magnesium chloride in the 96-well plate were 0, 4, 5, 6, 7, and 8 mM, and the final concentrations of HNB and Chemical Formula 2 were 120 μM, respectively, and the final concentrations of Chemical Formulas 3 and 4 were 60 μM, respectively.

Solubility test in water = settings: 10 mg dissolved in 1 ml of deionized water
Experimental: The solubility in water was measured to confirm the solubility of the synthesized candidate compounds. Specifically, 10 mg of hydroxynaphthalene blue (HNB), which is a compound known to be developed by magnesium ions as a control, and 10 mg of each of the candidate compounds were dissolved in 1 ml of deionized water, and then the solubility was confirmed.
Various color developing dyes represented by Chemical Formula 1 above were dissolved in distilled water (D.W) and the solubility was tested to select a compound having high solubility. The selected compound was diluted at each concentration (100 uM, 50 uM, 25 uM, 12.5 uM, 6.25 uM, and 3.13 uM) and the reaction sensitivity with magnesium (magnesium concentration of 100 mM, 10 mM) by concentration was tested.

Row | Molecule | Molar absorption coefficient [1] | pH stability (color development with pH change in the absence of magnesium ions) [2] | also measured
1 | O=[N+]([O-])c1ccc(O)c(N=Nc2cc(S(=O)(=O)O)c3ccccc3c2O)c1 [Chemical Formula 2] | 12,000 | developed to a color clearly different from that in the presence of magnesium ions under neutral to basic conditions | –
2 | Nc1ccc2c(O)c(N=Nc3ccc([N+](=O)[O-])cc3O)c(S(=O)(=O)O)cc2c1 [Chemical Formula 3] | 44,000 | excellent; also recorded: without being influenced by the pH change | absorption coefficient relative to HNB [1]: 3.38 times; absorption spectrum position after shift by magnesium ions ([3]; with magnesium ions): 640 nm; absorption spectrum position before shift by magnesium ions ([3]; without magnesium ions): 500 nm
3 | O=[N+]([O-])c1cc(N=Nc2c(S(=O)(=O)O)cc3cc(Nc4ccccc4)ccc3c2O)c(O)c([N+](=O)[O-])c1 [Chemical Formula 4] | 31,000 | excellent; also recorded: without being influenced by the pH change | absorption coefficient relative to HNB [1]: 2.38 times
4 | CC1=NN(c2ccccc2)C(O)C1N=Nc1cc([N+](=O)[O-])cc(S(=O)(=O)O)c1O (centres unmarked) [Chemical Formula 5] | 33,579 | – | –
5 | O=[N+]([O-])c1cc(N=Nc2c(O)cccc2O)c(O)c(S(=O)(=O)O)c1 [Chemical Formula 6] | 18,000 | – | –
6 | O=[N+]([O-])c1cc(N=Nc2c(S(=O)(=O)O)cc3cc(Nc4ccccc4)ccc3c2O)c(O)c(S(=O)(=O)O)c1 [Chemical Formula 7] | 25,000 | – | –
7 | O=[N+]([O-])c1cc(N=Nc2c(O)ccc3ccccc23)c(O)c([N+](=O)[O-])c1 [Chemical Formula 8] | 5,117 | – | –
8 | O=[N+]([O-])c1cc(S(=O)(=O)O)cc(N=Nc2cc(S(=O)(=O)[O-])c3ccccc3c2O)c1O.[Na+] [Chemical Formula 9] | 23,000 | – | –
9 | hydroxynaphthalene blue [HNB, reference compound] | 13,000 | – | solubility in water (Solubility test in water): dissolved in water
